Measured values: article PMC8518382, “Identification of a Bromodomain‐like Region in 15‐Lipoxygenase‐1 Explains Its Nuclear Localization” (Angewandte Chemie (International Ed. in English), 2021)
Where “and” joins values, the source holds several entries; their conditions need not be identical. Identical values can stand only once.

Experiments:
Format in all cases: biochemical
15-LOX-1 [1] = target: T1, 15-LOX-1 (Homo sapiens, UniProt P16050); experiment: Jump dilution assay on recombinant 15-LOX-1; parameters: His-tag (N); made in house; host or cells: E. coli BL21(DE3); settings: 10 µM for 20 min at room temperature, then 100-fold dilution
T1 sequence (P16050 1-662): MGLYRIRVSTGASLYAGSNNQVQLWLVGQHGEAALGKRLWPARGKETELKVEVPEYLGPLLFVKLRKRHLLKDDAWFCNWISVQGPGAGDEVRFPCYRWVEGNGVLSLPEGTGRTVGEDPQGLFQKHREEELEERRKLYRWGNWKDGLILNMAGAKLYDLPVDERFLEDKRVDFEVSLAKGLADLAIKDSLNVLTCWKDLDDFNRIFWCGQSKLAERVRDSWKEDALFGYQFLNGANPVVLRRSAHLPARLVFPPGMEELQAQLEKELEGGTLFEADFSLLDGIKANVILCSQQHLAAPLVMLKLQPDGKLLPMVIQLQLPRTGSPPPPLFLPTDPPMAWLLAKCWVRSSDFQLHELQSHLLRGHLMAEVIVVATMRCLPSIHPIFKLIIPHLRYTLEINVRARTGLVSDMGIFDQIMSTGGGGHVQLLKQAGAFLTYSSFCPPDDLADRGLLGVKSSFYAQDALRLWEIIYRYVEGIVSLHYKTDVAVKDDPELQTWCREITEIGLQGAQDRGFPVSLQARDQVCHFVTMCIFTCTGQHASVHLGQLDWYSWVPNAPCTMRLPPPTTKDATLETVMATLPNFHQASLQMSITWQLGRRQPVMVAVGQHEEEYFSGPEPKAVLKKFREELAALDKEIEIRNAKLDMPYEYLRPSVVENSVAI
Experimental: Figure S3. Labelox B labeled endogenous LOXs are immunoprecipitated by streptavidin beads. (A) A549 cell lysates were treated with. Labelox B. After labeling, free Labelox B was removed by Vivaspin
2. Labelox B labeled proteins were precipitated by Dynabeads and analyzed by Western blotting. (B) Uncropped Western blots for (A)
LOX-1 was incubated with Labelox B at 10 µM for 20min at room temperature to ensure 100% inhibition. Then, the enzyme/probe mixture was dilution 100-fold and employed for linoleic acid conversion. The group incubated with vehicle was condisered as positive control, while the group in […] of 15-LOX-1 was negative control. […]

15-LOX-1 [2] = target: T1, 15-LOX-1; experiment: ABP-based ELISA assay with A549 cell lysate, 15-LOX-1; parameters: the endogenous LOXs were captured on an anti‐LOX antibody precoated 96‐well plate; endogenous in cells; host or cells: A549 cell lysate
Experimental: (§1) A549 cell lysate was treated with a serial dilution of the respective inhibitor. Subsequently, samples were labeled by treatment with 1 μM of Labelox B for 1 min. […] Data are mean±s.d., n≥3 independent experiments. […]
(§2) 1.6. Immunoblotting Analysis […]
(§3) 1.7. ABPP-based LOX inhibitor specificity validation
(§4) A549 cells were lysed by RIPA buffer supplemented with 1x PIC. After sonication and centrifugation, the supernatant was collected, and the protein concentration was determined by a Pierce BCA Protein Assay Kit (Thermo Fisher Scientific, USA). The lysates were then diluted with PBS to 300 ng/µl and stored in -20°C. To label endogenous LOXs with Labelox B under the competition condition, 180 µl diluted lysates were incubated with 200 µl different LOX inhibitor solution (in PBS) with desired concentrations for 18 min to inhibit LOXs activity. Later, 20 µl of a 20 µM Labelox B (in PBS) was added and incubated shortly for 2 min, followed by adding 50 µl of a 0.5 M EDTA to stop the labeling reaction. The reaction mixture was 450 µl in total. Inhibitors and Labelox B were absent in positive and […]
(§5) negative control, respectively. To detect the competition labeling of Labelox B among different LOXs, a high-binding 96-well plate (Greiner, #M4561) was coated with 5-LOX (#ab169755, Abcam), 12-LOX […]
(§6) (1:500 dilution in PBS) for overnight at 4°C. After washing triply with 0.05%PBST, the plate was blocked with 2% (w/v) BSA in PBST. Subsequently, 100 µl of each reaction mixture was added to the LOX-antibody-coated wells. There are four LOX antibodies used for coating. Therefore, in total, 400 µl mixture is needed for each reaction. After one hour of incubation, LOXs were pulled down by antibodies accordingly. Next, 100 µl of HRP-conjugated streptavidin (1:2000 dilution in PBS, Thermo Fisher Scientific, USA) was added to each well to detect the D04 labeled LOXs among precipitated LOXs. After washing with PBST, 100 µl of mixed HRP substrate reagent (R&D Systems, Minneapolis, USA) was added, and the colorizing reaction was stopped by adding 100 µl of 1M sulfuric acid. The absorbance at […]

5-LOX = target: T2, 5-LOX (Homo sapiens, UniProt P09917); experiment: ABP-based ELISA assay with A549 cell lysate, 5-LOX
T2 construct: the endogenous LOXs were captured on an anti‐LOX antibody precoated 96‐well plate; endogenous in cells; host or cells: A549 cell lysate
T2 sequence (P09917 1-674): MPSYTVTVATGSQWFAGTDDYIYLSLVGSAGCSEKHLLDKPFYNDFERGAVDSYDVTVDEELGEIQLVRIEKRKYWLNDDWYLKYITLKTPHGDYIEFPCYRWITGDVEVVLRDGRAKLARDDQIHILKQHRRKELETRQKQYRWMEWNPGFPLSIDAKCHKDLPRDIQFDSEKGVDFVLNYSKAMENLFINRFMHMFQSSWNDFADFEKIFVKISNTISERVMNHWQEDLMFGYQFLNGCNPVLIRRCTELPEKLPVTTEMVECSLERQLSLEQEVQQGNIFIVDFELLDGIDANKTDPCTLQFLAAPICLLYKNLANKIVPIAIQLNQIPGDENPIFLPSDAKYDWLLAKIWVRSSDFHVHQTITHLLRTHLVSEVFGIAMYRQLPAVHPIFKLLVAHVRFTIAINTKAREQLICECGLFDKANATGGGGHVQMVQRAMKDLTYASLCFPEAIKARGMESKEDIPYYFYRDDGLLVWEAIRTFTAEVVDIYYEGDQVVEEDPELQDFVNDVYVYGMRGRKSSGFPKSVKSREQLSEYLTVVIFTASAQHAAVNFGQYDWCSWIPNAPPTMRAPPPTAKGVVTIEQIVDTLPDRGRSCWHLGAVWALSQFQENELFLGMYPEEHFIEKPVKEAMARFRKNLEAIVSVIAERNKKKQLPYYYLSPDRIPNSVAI
Experimental: as §1, §2, §3, §4, §5, §6

15-LOX-1 [3] = target: T1, 15-LOX-1; experiment: ABP-based ELISA assay with recombinant 15-LOX-1 (inhibition of Labelox B labeling); parameters: His-tag (N); made in house; host or cells: E. coli BL21(DE3)
Experimental: as §1, §2, §3, §4, §5
(1:500 dilution in PBS) for overnight at 4°C. After washing triply with 0.05%PBST, the plate was blocked with 2% (w/v) BSA in PBST. Subsequently, 100 µl of each reaction mixture was added to the LOX-

| Reversibility of inhibition (15-LOX-1 [1]) | SMILES | HillSlope Value (15-LOX-1 [2]) | IC50 (15-LOX-1 [2]; 1 μM Labelox B) [µM] | HillSlope Value (5-LOX) | IC50 (5-LOX; 1 μM Labelox B) | Hill slope (15-LOX-1 [3]) | IC50 (15-LOX-1 [3]; read-out: IC50 for attenuation of Labelox B mediated labeling) |
| --- | --- | --- | --- | --- | --- | --- | --- |
| irreversibly inhibits | CCCCCC#CCC#CCOC(=O)CCCC[C@@H]1SC[C@@H]2NC(=O)N[C@@H]21 [Labelox B (3)] |  |  |  |  |  |  |
|  | c1ccc2c(c1)SCc1c-2[nH]c2ccccc12 [PD146176] | -0.93 | 17.3 | -0.99 | ~17 µM and 14.8 µM | around 1 | ~15 µM and 15 µM |
|  | O=c1cc(-c2ccccc2)oc2cc(O)c(O)c(O)c12 [Baicalein] | -0.47 |  | -0.26 |  | lower than 1 |  |
